# Source: PMC8226574, “Action of Carvacrol on Parascaris sp. and Antagonistic Effect on Nicotinic Acetylcholine Receptors” (Pharmaceuticals, 2021)
# Entries after “also recorded” stand apart in the source; their conditions may differ. Like-named read-outs stand apart in the source and are kept apart here.
# Legend:
# A. suum ACR-16 N-AChR = target: T1, A. suum ACR-16 N-AChR (Ascaris suum, UniProt F1KYJ9); assay: cell-based
# T1 construct: expressed in transfected cells; host or cells: Xenopus laevis oocytes (cRNA micro-injection)
# T1 sequence (F1KYJ9 1-504): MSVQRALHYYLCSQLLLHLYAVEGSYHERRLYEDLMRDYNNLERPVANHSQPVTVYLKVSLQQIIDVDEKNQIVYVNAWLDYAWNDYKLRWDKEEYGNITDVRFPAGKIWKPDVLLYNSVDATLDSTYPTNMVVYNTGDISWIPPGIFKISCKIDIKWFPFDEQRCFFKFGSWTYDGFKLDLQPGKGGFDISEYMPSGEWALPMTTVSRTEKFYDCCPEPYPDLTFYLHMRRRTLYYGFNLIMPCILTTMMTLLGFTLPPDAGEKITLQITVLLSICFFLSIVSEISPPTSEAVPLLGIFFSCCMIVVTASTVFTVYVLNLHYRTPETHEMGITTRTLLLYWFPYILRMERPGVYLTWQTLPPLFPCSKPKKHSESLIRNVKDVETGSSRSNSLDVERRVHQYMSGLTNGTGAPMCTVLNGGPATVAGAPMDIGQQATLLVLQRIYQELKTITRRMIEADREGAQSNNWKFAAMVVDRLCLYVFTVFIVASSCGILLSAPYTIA
# Description: (§1) Parascaris sp. ACR-26/27 M-AChR as well as Parascaris sp. and A. suum ACR-16 N-AChRs were expressed in Xenopus laevis oocytes as previously described. Briefly, Xenopus laevis defolliculated oocytes were obtained from Ecocyte Bioscience (Germany). Oocytes were micro-injected with 36 nL of cRNA mixes containing 50 ng/µL of each cRNA encoding subunits of interest and three H. contortus ancillary factors (Hco-RIC-3.1, Hco-UNC-50 and Hco-UNC-74). After 3–4 days of incubation, the oocytes were assayed under voltage clamp at −60 mV, and electrophysiological recordings were performed as described previously. The carvacrol concentration-dependent inhibition of acetylcholine current response was assessed for Parascaris- and Asu-ACR-16 channels with the protocol described by Zheng et al..
# (§2) The results of the contraction assay are expressed as means ± S.E. in grams (g) of tension. […] GraphPad Prism® Software (San Diego, CA, USA) was used to estimate the constants EC50 and nH by non-linear regression for each preparation. We determined the mean contraction responses to each concentration of acetylcholine. Whole cell current electrophysiology responses were analyzed using the pCLAMP 10.4 package (Molecular Devices). […] One-way analysis of variance (ANOVA) was applied for the comparison of the differences between the EC50 value and the maximal effect (Rmax). Differences were considered significant when the p value was < 0.05. The statistical analysis was conducted using GraphPad Prism® software (San Diego, CA, USA), while all values are expressed as mean ± standard error (S.E.).
# [1] = tested on: A. suum innervated muscle strips; conditions: 300 µM of carvacrol; cited from earlier work
# [2] = target: Parascaris sp. ACR-26/27 M-AChR (Parascaris equorum, UniProt A0A0U2ES47+A0A0U2ES58); assay: Two-electrode voltage-clamp on Parascaris sp. ACR-26/27 M-AChR expressed in Xenopus laevis oocytes; format: cell-based
# Chain of Parascaris sp. ACR-26/27 M-AChR (A0A0U2ES58 entry or part of it): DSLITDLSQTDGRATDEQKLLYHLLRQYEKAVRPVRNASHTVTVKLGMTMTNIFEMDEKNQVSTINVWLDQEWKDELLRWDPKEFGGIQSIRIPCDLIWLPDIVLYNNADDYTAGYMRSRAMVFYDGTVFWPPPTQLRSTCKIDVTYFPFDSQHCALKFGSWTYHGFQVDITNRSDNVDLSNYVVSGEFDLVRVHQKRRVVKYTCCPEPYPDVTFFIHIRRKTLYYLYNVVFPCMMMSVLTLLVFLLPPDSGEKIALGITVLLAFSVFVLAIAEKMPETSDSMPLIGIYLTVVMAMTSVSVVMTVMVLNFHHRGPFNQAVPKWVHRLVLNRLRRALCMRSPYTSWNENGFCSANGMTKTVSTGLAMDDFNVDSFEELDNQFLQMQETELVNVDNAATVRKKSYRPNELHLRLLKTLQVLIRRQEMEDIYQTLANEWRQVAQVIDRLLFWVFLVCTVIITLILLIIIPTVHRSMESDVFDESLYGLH
# Chain of Parascaris sp. ACR-26/27 M-AChR (A0A0U2ES47 entry or part of it): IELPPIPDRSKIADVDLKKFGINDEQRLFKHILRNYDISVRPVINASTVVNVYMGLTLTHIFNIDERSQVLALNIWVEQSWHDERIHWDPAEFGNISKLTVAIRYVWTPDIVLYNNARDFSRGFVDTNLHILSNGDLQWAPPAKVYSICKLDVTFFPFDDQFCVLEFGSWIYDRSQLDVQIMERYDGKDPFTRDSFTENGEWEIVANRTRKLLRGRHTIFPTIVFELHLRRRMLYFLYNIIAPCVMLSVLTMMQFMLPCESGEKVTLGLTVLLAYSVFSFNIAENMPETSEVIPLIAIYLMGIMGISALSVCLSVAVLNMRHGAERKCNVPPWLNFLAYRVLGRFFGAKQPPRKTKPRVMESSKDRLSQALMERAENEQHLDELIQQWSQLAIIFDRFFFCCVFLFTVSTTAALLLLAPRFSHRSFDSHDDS
# Description: as §1, §2
# [3] = target: Parascaris sp. ACR-16 N-AChR (Parascaris equorum, UniProt A0A3S9VMQ8); assay: Two-electrode voltage-clamp on Parascaris sp. ACR-16 N-AChR expressed in Xenopus oocytes; format: cell-based; conditions: for reduction of ACh maximal response amplitude: p < 0.05
# Chain of Parascaris sp. ACR-16 N-AChR (A0A3S9VMQ8 entry or part of it): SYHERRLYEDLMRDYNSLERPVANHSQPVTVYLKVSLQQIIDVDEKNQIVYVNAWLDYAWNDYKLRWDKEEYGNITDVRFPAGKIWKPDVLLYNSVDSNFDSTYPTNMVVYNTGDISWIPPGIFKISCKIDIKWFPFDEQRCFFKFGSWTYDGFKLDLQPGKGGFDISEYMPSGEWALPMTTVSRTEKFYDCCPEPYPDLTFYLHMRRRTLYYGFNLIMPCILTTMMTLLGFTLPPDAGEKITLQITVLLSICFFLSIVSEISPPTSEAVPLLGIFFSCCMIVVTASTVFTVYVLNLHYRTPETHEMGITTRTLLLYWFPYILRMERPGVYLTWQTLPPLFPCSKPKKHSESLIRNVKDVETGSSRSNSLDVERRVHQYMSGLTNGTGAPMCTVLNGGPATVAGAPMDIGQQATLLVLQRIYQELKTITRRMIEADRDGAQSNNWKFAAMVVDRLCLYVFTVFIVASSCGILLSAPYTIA
# Description: as §1, §2
# [4] = tested on: Parascaris sp. muscle flap; assay: Parascaris sp. body muscle flap isometric contraction assay
# Description: For the contraction assay, adult female Parascaris sp. worms were collected weekly from the slaughterhouse at Vrčin, Belgrade, Serbia. Worms were maintained in Locke’s solution, composition (mM): NaCl 155, KCl 5, CaCl2 2, NaHCO3 1.5 and glucose 5, at a temperature of 32 °C. The Locke’s solution was changed twice daily, and each batch of worms was used within 2 days of collection. Parascaris muscle flaps for the contractions were prepared by dissecting the anterior part of the worm, 3–4 cm caudal to the head (Figure 1b). Each flap (always the same length of 1 cm) was monitored isometrically by attaching a force transducer in an experimental bath maintained at 37 °C, containing 20 mL Ascaris Perienteric Fluid Ringer/APF Ringer (mM: NaCl, 23; Na-acetate, 110; KCl, 24; CaCl2, 6; MgCl2, 5; glucose, 11; HEPES, 5; pH 7.6) and bubbled with room air. After dissection, the preparations were allowed to equilibrate for 15 min under an initial tension of 1.5 g. […] Responses for each concentration were expressed in grams of tension (g), produced by each individual flap preparation. The effect of carvacrol (300 μM) on the acetylcholine dose–response plots was determined. Contractions were monitored on a PC using a BioSmart interface and eLAB software (ElUnit, Belgrade, Serbia). The system allows real-time recording, display and analysis of experimental data. Sigmoid dose–response curves for each individual flap preparation at each concentration of the antagonist were described by the Hill equation.
# as §2
structure (smiles),measurement,setting,value
Cc1ccc(C(C)C)cc1O [carvacrol],IC50,A. suum ACR-16 N-AChR,36.4 ± 1.3 µM
same,mode of action,A. suum ACR-16 N-AChR,non-competitive antagonist
same,higher affinity for the A. suum N-AChR over the Parascaris sp. N-AChR,A. suum ACR-16 N-AChR; from concentration-inhibition data,approximately 5 fold
same,inhibition of the ACh contractile effect,[1],≤ 49%
same,mode of action,[2],non-competitive antagonist
same,agonist action,[2]; carvacrol perfused alone,no agonist action
same,effect on efficacy of ACh activation (Imax),"[2]; perfusion of 100 and 300 µM carvacrol, p < 0.0001",significantly reduced
same,IC50,"[2]; read-out: IC50, inhibition of ACh-elicited current",169.3 ± 1 µM
same,IC50,[3],177.8 ± 1.1 µM
same,mode of action,[3],non-competitive antagonist
same,agonist effect,[3]; 300 µM carvacrol,no agonist effect
same,reduction of ACh maximal response amplitude,[3]; presence of 100 µM carvacrol,2 fold
same,reduction of ACh maximal response amplitude,[3]; presence of 300 µM carvacrol,3 fold
same,inhibitory effect after removal of carvacrol from experimental baths (washing),[4]; 300 µM carvacrol,remained even after removal
same,effect on contractions induced by ACh,"[4]; 300 µM carvacrol, ACh 1 to 100 µM",completely abolished; also recorded: fully and irreversibly abolished; also recorded: full inhibition
"CC(=O)OCC[N+](C)(C)C [ACh, Acetylcholine chloride]",EC50,"[2]; ACh EC50, absence of carvacrol, normalized to 100 µM ACh, n = 6",25 µM
same,EC50,"[2]; ACh EC50, continued perfusion of 100 µM carvacrol, n = 5",12.2 µM
same,EC50,"[2]; ACh EC50, continued perfusion of 300 µM carvacrol, n = 6",6.6 µM
same,EC50,"[2]; ACh log EC50, absence of carvacrol, log of EC50 in µM, n = 6",25 µM
same,EC50,"[2]; ACh log EC50, continued perfusion of 100 µM carvacrol, n = 5",12.2 µM
same,EC50,"[2]; ACh log EC50, continued perfusion of 300 µM carvacrol, n = 6",6.56 µM
same,Hill coefficient of ACh concentration-response,[2]; absence of carvacrol,1.4 ± 0.1
same,Hill coefficient of ACh concentration-response,[2]; presence of 100 µM carvacrol,1.7 ± 0.4
same,Hill coefficient of ACh concentration-response,[2]; presence of 300 µM carvacrol,1.5 ± 0.3
same,Hill coefficient of ACh concentration-response,[3]; 100 µM carvacrol,2.0 ± 0.3
same,Hill coefficient of ACh concentration-response,[3]; 300 µM carvacrol,2.1 ± 0.4
same,EC50,"[3]; ACh EC50, presence of 100 µM carvacrol, n = 6",5.9 µM
same,EC50,"[3]; ACh EC50, presence of 300 µM carvacrol, n = 10",8.2 µM
same,EC50,"[3]; ACh EC50, without carvacrol, n = 6",6.5 µM
same,EC50,"[3]; ACh log EC50, presence of 100 µM carvacrol, n = 6",5.92 µM
same,EC50,"[3]; ACh log EC50, presence of 300 µM carvacrol, n = 10",8.18 µM
same,Hill coefficient of ACh concentration-response,[3]; without carvacrol,2.0 ± 0.2
same,ACh log EC50,"[3]; without carvacrol, log of EC50 in µM, n = 6",0.811 ± 0.028
same,"maximal effect (Rmax), contraction",[4]; obtained with 100 µM ACh,1.19 ± 0.051 g
same,EC50,"[4]; read-out: EC50 of ACh, muscle flap contraction, control, no carvacrol, n = 5",6.08 µM
same,EC50,"[4]; read-out: log EC50 of ACh, muscle flap contraction (converted)",6.03 µM
